Laboratory results taken from US6492137B1, “Response element compositions and assays employing same” (The Salk Institute for Biological Studies, priority 1989, dated 2002).

Molecular target: T1, RARα (Homo sapiens, UniProt P10276)
T1 sequence (P10276 1-462): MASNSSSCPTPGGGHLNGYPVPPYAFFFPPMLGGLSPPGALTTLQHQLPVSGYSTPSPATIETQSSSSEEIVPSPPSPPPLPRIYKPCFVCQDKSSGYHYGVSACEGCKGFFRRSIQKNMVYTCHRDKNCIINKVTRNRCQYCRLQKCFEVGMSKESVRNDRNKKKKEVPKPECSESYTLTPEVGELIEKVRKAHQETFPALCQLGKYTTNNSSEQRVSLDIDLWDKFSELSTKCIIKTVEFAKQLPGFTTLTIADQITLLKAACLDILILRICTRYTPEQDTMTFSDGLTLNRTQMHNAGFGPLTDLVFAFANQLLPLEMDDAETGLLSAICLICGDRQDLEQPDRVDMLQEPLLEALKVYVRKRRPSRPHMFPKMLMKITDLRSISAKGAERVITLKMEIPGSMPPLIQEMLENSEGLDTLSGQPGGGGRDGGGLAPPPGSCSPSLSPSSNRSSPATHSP
Test: ΔSV-CAT reporter cotransfection assay in CV-1 cells with RARα expression plasmid, ±RA
Assay type: cell-based
Set-up: expressed in transfected cells; host or cells: CV-1 (monkey kidney)
Settings: RA 1 μM
From the text: Receptor expression plasmids used in the following cotransfection assays have been described previously (pRShTRβ [see Thompson, et al., Proc. Natl. Acad. Sci. U.S.A. 86: 3494-3498 (1989)]; pRShRARα [see Giguere, et al., Nature 330: 624-629 (1987)]; pRShRARβ and pRshRARγ [see Ishikawa, et al., Mol. Endocrinol, 4: 837-844 (1990)]; and pRShVDR, [Schule, et al., Cell 61: 497-504 (1990)]. A basal reporter plasmid ΔSV-CAT was constructed by replacing the TK promoter in TK-CAT [Damm, et al., Nature 339: 593-597 (1989)] with the SphI-HindIII fragment of the SV40 early promoter. All of the recombinant CAT reporter plasmids used herein harbor a single copy of the indicated oligonucleotides at the unique HindIII site upstream of the SV40 promoter. Identity of the inserted oligonucleotides was confirmed by sequencing. To improve production of receptor proteins in COS cells, a new eukaryotic expression vector pCMX was prepared by modifying the plasmid CDM8 [Seed, B., Nature 329: 840-842 (1987)]. The CDM8 was cut with MluI and StuI in order to release the DNA fragment encoding the CMV/T7 promoter, SV40 small t intron/poly A signal, polyoma virus enhancer/origin, and SV40 enhancer/origin. The resulting fragment was ligated to a larger fragment of PvuII-digested PUC19. An internal deletion was introduced between unique BamHI and BclI sites present in the DCM8 portion. The stuffer sequence flanked by XbaI sites was replaced with a synthetic polylinker coding for 5′-KpnI/Asp718-EcoRV-BamHI -MscI-NheI-3′, followed by a stretch of 5′-[…]-3′ (SEQ ID NO:48) which can function as a universal termination signal for protein translation. The coding sequence of the luciferase [de Wet, et al., Mol. Cell. Biol. 7: 725-737 (1987)] and human TRβ, RARα, and VDR was placed in the polylinker region of the pCMX, generating pCMX-LUC, Pcmx-Htrβ, pCMX-hRARα, and pCMX-hVDR, respectively. The translation start site of the RARα was modified to […] by attaching the synthetic linker encoding a consensus translation start signal [Hollenberg, et al., Cell 55: 899-906 (1988)]. […]

MHC-N: 23-nucleotide core of the wild-type sequence (MHC-TRE) (SEQ ID NO:14) (AGCTGGAGGTGACAGGAGGACAGCAAGCT; DNA, backbone not given here; further chemistry not fully specified)
RA response (in words): not RA response
